Reference: paper PMC9454270, “Peptidomimetic Small-Molecule Inhibitors of 3CLPro Activity and Spike–ACE2 Interaction: Toward Dual-Action Molecules against Coronavirus Infections” (The Journal of Organic Chemistry, 2022)
pIC50: −log10 of the molar value. *1 amine or outer side, *2 acyl side, *3 side chain or, on linkers, in order; H or OH if unused. Where a SMILES comes first, the peptide text is derived from it. [ ]: non-standard residue; d: D form. X1 = O=C1CCN([*:1])CCN1[C@@H](Cc1ccccc1)C(=O)[*:2]

What was measured:
[1] = molecular target: T1, 3CLPro enzyme, the main protease of SARS-CoV-2 (Severe acute respiratory syndrome coronavirus 2, UniProt P0DTD1); assay: biochemical; format: biochemical; conditions: for % In(3CLPro) at 100 μM: pH 7
T1 construct: 3CLPro enzyme, the main protease of SARS-CoV-2

[2] = molecular target: SARS-CoV-2 spike/ACE2 complex (RBD of Spike S protein binding to human receptor ACE2) (Severe acute respiratory syndrome coronavirus 2, UniProt P0DTC2); assay: biochemical; set-up: species or system SARS-CoV-2 / human
[3] = system: SARS-CoV-2 infection; conditions: cited from earlier work

Compound	pIC50 [1]	% In(3CLPro) at 100 μM [1]	% In(spike–ACE2) at 100 μM [2]	pIC50 [2]	inhibition potency toward SARS-CoV-2 infection [3]
NC(=O)CC[C@H](NC(=O)[C@H](Cc1ccc(O)cc1)NC(=O)[C@H](Cc1ccccc1)N1CCN(C(=O)[C@H](CC(=O)O)NC(=O)[C@@H](N)CCC(=O)O)CC1=O)C(N)=O [compound 15, H-ED(4b)YQ-NH2]	4.82	90–91%			
NC(=O)CC[C@H](NC(=O)[C@H](Cc1ccc(O)cc1)NC(=O)[C@H](Cc1ccccc1)N1CCN(C(=O)[C@H](CC(=O)O)NC(=O)[C@@H](N)CCC(=O)O)CCC1=O)C(N)=O [compound 16, H-ED(11b)YQ-NH2] (H-ED[X1]YQ-NH2)	3.90	45–57%	66–76%	4.70	
H-EDLFYQ-NH2 [EDLFYQ (SAP-6)]					millimolar range
